Tests used:
[1] = system: carrageenin-induced rat paw edema; assay: rat carrageenin edema test (carrageenin-induced rat paw edema); type: in vivo, Wistar male rat; settings: 6 rats; for % Inhibition (edema), 2 Hours: 2 hours after carrageenin; for % Inhibition (edema), 3 Hours: 3 hours after carrageenin
Description: When […] of 1% (W/V) λ-carrageenin is subcutaneously injected into the left paw of a Wistar male rat of 120 to 150 g, edema is developed in the left paw with a severity peak at 3 to 4 hours after injection--rat carrageenin edema test. It has been known that this carrageenin-induced rat paw edema is an excellent experimental model for inflammation, where histamine is involved in the development of edema immediately after injection of carrageenin, and subsequently such chemical mediators as prostaglandins, leukotrienes, bradykinin and the like are also involved.
The effect of sarcophytol-A on edema was investigated employing this experimental model: sarcophytol-A was orally administered to rats one hour before injection of carrageenin and the volume of the thus induced edema in the rat paw was measured by a volumometer 2 or 3 hours after the injection of carrageenin.
Degrees of edematization are expressed in percentages of paw volume increases after induction with respect to the paw volumes before induction: namely,
% Edematization=(B-A)/A×100
wherein A is the paw volume before induction, and B after induction. Further, inhibiting rates (%) are calculated according to the following equation: […]

[2] = system: polymorphonuclear leukocytes; assay: liberation of lysosomal enzymes (β-glucuronidase) from FMLP-stimulated polymorphonuclear leukocytes; type: cell-based, male Wistar rat; settings: for Liberation (%) of lysosomal enzymes: control (0.1% DMSO) 32.0
Description: When 20 ml of 1% casein is intraperitoneally injected to a rat, a large number of polymorphonuclear leukocytes appear in the peritoneal cavity in 5 hours after the injection. Using these polymorphonuclear leukocytes, it is possible to measure the activity of polymorphonuclear leukocytes in an in vitro system. Thus, polymorphonuclear leukocytes are added into a test tube together with a buffer, and cytochalasin B is then added. Five minutes later, a stimulant formyl-methionyl-leucyl-phenylalanine (FMLP) is added. Then, the polymorphonuclear leukocytes liberate lysosomal enzymes. Simultaneously, some active enzymes and leukotrienes are produced. See Wei Hsueh et al., Nature, 290(23), 710-713 (11981).
Thus, polymorphonuclear leukocytes (2×10^6) were collected from the peritoneal cavity of a male Wistar rat of 250 to 350 g in body weight which had been stimulated with casein, and incubated in Hepes buffer (pH 7.4) for 5 minutes. After 5 μg of cytochalasin B was added, the mixture was incubated for an additional one minute. To the mixture, there was added an amount of a drug to be tested and, after incubation for 5 minutes, FMLP (0.1 μM) as a stimulant was added. Five minutes later, 2 volumes of ice-cooled phosphate buffer was added to arrest the reaction. The cells were removed by centrifugation at 1,100 rpm for 5 minutes. The supernatant was assayed for β-glucuronidase activity as an index of lysosomal enzymes. Separately, the total β-glucuronidase activity contained in the polymorphonuclear leukocyte was measured. Thus, liberation rates of lysosomal enzymes were determined as percentages of […]. Inhibition rates were calculated in percentage according to the following equation:
% Inhibition=(1-T/C) ×100
wherein T and C represent the liberation rates (%) of lysosomes for the treated and control groups, respectively.

mast cells [3] = assay: release of histamine from mast cells stimulated with compound 48/80; type: cell-based, male Wistar rat; settings: for Histamine Release: control (0.1% DMSO) 62.42
Description: Such histamine release can also be caused by addition of a synthetic stimulant compound 48/80, ATP (adenosine triphosphate), to mast cells.
Thus, mast cells were collected from the peritoneal cavity of a male Wistar rat of 400 to 450 g in body weight according to conventional procedures. The mast cells (5×10^4) were incubated in Krebs-Ringer buffer (pH 7.4) containing an amount of sarcophytol-A for 10 minutes. The compound 48/80 (100 ng) was added as a stimulant. After incubation for further 10 minutes, cells were removed by centrifugation. Histamine in the supernatant was quantitatively measured according to Shore et al. method: J. Phar. Exp. Ther., 127, 182-186 (1959). Total histamine contained in the mast cells was also measured. Inhibition rates (%) are calculated according to the following equation: […]
wherein T and C represent the amount of histamine released from mast cells after the treatment with the drug, and the total amount contained in the mast cells, respectively.

mast cells [4] = assay: release of histamine from mast cells stimulated with protein extracted from the cuticle of ascarids (IgE antigen); type: cell-based, rat; settings: preincubated before addition of protein extracted from the cuticle of ascarids
mast cells [5] = settings: inhibitor of histamine release; cited from earlier work
[6] = 33 mg/kg oral, 1 h before carrageenin

In the case of COc1ccc2c(c1)c(CC(=O)O)c(C)n2C(=O)c1ccc(Cl)cc1 [Indomethacin, reference compound], the “% Inhibition (edema), 2 Hours” value ([1]; 10 mg/kg oral, **p<0.01 vs control) is reported as 43.5 ± 3.5% and the “% Inhibition (edema), 3 Hours” value ([1]; 10 mg/kg oral, ***p<0.001 vs control) is reported as 43.7 ± 3.0%.

In the case of C/C1=C\C=C(\C(C)C)[C@@H](O)C/C(C)=C/CC/C(C)=C/CC1 [Sarcophytol-A], the “% Inhibition (edema), 2 Hours” value [1, 6] is reported as -3.0 ± 6.5%, the “% Inhibition (edema), 3 Hours” value [1, 6] is reported as 2.4 ± 8.6% and the “% Inhibition (edema), 2 Hours” value ([1]; 100 mg/kg oral, 1 h before carrageenin) is reported as 24.4 ± 7.8%. For the same compound, the “% Inhibition (edema), 3 Hours” value ([1]; 100 mg/kg oral, 1 h before carrageenin, **p<0.01 vs control) was 26.9 ± 6.9%, the “Liberation (%) of lysosomal enzymes” value ([2]; 4 μM, FMLP 0.1 μM) was 29.4% and the “Liberation (%) of lysosomal enzymes” value ([2]; 11 μM, FMLP 0.1 μM) was 27.2%. The “Liberation (%) of lysosomal enzymes” value ([2]; 33 μM, FMLP 0.1 μM) was 26.0%, the “Liberation (%) of lysosomal enzymes” value ([2]; 100 μM, FMLP 0.1 μM) was 13.1% and the inhibition at 4 µM ([2]; Rattus norvegicus, Leukocyte, 4 μM, FMLP 0.1 μM, read-out: Inhibition (%) of lysosome liberation) was 8.1%. The inhibition at 11 µM ([2]; Rattus norvegicus, Leukocyte, 11 μM, FMLP 0.1 μM, read-out: Inhibition (%) of lysosome liberation) was 15.1%, the inhibition at 33 µM ([2]; Rattus norvegicus, Leukocyte, 33 μM, FMLP 0.1 μM, read-out: Inhibition (%) of lysosome liberation) was 18.8% and the inhibition at 100 µM ([2]; Rattus norvegicus, Leukocyte, 100 μM, FMLP 0.1 μM, read-out: Inhibition (%) of lysosome liberation) was 59%. For the same compound, the “liberation of lysosomal enzymes (in words)” value ([2]; preincubated before addition of the stimulant FMLP) was “positively inhibited”, the “Histamine Release” value (mast cells [3]; 4 μM, compound 48/80 100 ng) was 65.32 Fluorescence Intensity and the “Histamine Release” value (mast cells [3]; 11 μM, compound 48/80 100 ng) was 59.72 Fluorescence Intensity. The “Histamine Release” value (mast cells [3]; 33 μM, compound 48/80 100 ng) was 55.72 Fluorescence Intensity, the “Histamine Release” value (mast cells [3]; 100 μM, compound 48/80 100 ng) was 41.45 Fluorescence Intensity and the inhibition at 4 µM (mast cells [3]; Rattus norvegicus, Mast cell, 4 μM, compound 48/80 100 ng) was -4.6%. The inhibition at 11 µM (mast cells [3]; Rattus norvegicus, Mast cell, 11 μM, compound 48/80 100 ng) was 4.3%, the inhibition at 33 µM (mast cells [3]; Rattus norvegicus, Mast cell, 33 μM, compound 48/80 100 ng) was 10.7% and the inhibition at 100 µM (mast cells [3]; Rattus norvegicus, Mast cell, 100 μM, compound 48/80 100 ng) was 33.6%. For the same compound, the “release of histamine (in words)” value (mast cells [3]; preincubated before addition of stimulant compound 48/80) was “positively inhibited” and the “release of histamine (in words)” value (mast cells [4]) was “positively inhibited”.

In the case of O=C(O)c1cc(=O)c2c(OCC(O)COc3cccc4oc(C(=O)O)cc(=O)c34)cccc2o1 [cromoglycate], the “degranulation of mast cells (in words)” value (mast cells [5]) is given as “inhibits degranulation of mast cells”.
